From patent US6916812B2, “Alpha-aminoamide derivatives as melanocortin agonists” (Bristol-Myers Squibb Company, priority 2001, dated 2005) come the findings set out here.

This experiment has as its target T1, cloned human MC4R (Homo sapiens, UniProt P32245).
T1 construct: made in house; host or cells: Hi5 insect cells (baculovirus infection); membrane preparation
As to the kind of experiment: Membrane binding assay: competitive inhibition of [125I]NDP-α-MSH binding. To be noted: for inhibition at 10 µM: read-out: Displacement Rate (%) (at 10 μM).

Setting [1] is: at 10 μM, [125I]NDP-α-MSH displacement.

pIC50: −log10 of the molar value. Like-named read-outs stand apart in the source and are kept apart here.

Usually pIC50 stands for the IC50 on a negative log10 scale, so that one unit is a factor of ten.

T1 sequence (P32245 whole entry): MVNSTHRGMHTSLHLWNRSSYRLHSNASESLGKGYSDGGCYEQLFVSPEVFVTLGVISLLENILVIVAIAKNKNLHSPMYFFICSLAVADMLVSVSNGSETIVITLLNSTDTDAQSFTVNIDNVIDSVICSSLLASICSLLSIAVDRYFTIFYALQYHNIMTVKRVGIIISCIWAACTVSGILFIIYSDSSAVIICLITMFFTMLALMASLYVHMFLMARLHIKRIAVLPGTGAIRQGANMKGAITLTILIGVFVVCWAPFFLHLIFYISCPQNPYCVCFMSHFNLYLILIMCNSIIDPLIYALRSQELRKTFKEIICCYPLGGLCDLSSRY

Take `CSc1ccc(CN2CCN(C(=O)[C@@H](N)Cc3ccc(OCc4ccccc4)cc3)CC2)cc1` [Example 125]: the inhibition at 10 µM under setting [1] lay in the range of 71 to 90%. In addition, the pIC50 (read-out: MC4R IC50) was 5.52 to 5.82.
As to `Cc1ccc(COc2ccc(C[C@H](N)C(=O)N3CCN(Cc4cccc(Cl)c4Cl)CC3)cc2)cc1C` [Example 191], under setting [1], the “Displacement Rate (%) (at 10 μM)” value is “+++ (+++ = 91-100)”. The pIC50 (read-out: MC4R IC50) is > 5.82.
Regarding `N[C@@H](Cc1ccc(OCc2ccccc2)cc1)C(=O)N1CCN(Cc2ccc(/C=C/c3ccccc3)cc2)CC1` [Example 88], the inhibition at 10 µM under setting [1] fell in the range of 91 to 100%. Also, the pIC50 (read-out: MC4R IC50) is > 5.82.
Take `CSc1ccc(COc2ccc(C[C@H](N)C(=O)N3CCN(Cc4cccc(Cl)c4Cl)CC3)cc2)cc1` [Example 224]: the “Displacement Rate (%) (at 10 μM)” value under setting [1] was “++ (++ = 71-90)”. For the same compound, the negative-log IC50 (pIC50) (read-out: MC4R IC50) was 5.52 to 5.82.
For `N[C@@H](Cc1ccc(OCCc2ccc(Cl)cc2Cl)cc1)C(=O)N1CCN(Cc2cccc(Cl)c2Cl)CC1` [Example 246], in that order: “+++ (+++ = 91-100)” and > 5.82.
On to `N[C@@H](Cc1ccc(OCc2ccccc2)cc1)C(=O)N1CCN(CCCc2ccccc2)CC1` [Example 147], for which the inhibition at 10 µM under setting [1] was in the range of 35 to 70%. Moreover, the pIC50 (read-out: MC4R IC50) is < 5.52.
Consider `CC(=O)c1cccc(-c2ccc(C[C@H](N)C(=O)N3CCN(Cc4cccc(Cl)c4Cl)CC3)cc2)c1` [Example 328], for which the inhibition at 10 µM under setting [1] lay within 71 to 90%. Besides, for the setting “read-out: MC4R IC50”, the pIC50 is 5.52 to 5.82.
For `CN(C)c1ccc(-c2ccc(C[C@H](N)C(=O)N3CCN(Cc4cccc(Cl)c4Cl)CC3)cc2)cc1` [Example 323], in that order: 71 to 90% and 5.52 to 5.82.
For `N[C@@H](Cc1ccc(OCc2ccccc2)cc1)C(=O)N1CCCN(Cc2ccc(OCc3ccc([N+](=O)[O-])cc3)cc2)CC1` [Example 27], in that order: 71 to 90% and > 5.82.
For `N[C@@H](Cc1ccc(OCc2ccccc2)cc1)C(=O)N1CCCN(Cc2cc(F)ccc2F)CC1` [Example 66], in that order: 35 to 70% and < 5.52.
`N[C@@H](Cc1ccc(OCc2ccccc2)cc1)C(=O)N1CCN(Cc2ccccc2-c2ccccc2)CC1` [Example 109]: the inhibition at 10 µM under setting [1] fell in the range of 71 to 90%. In addition, for the setting “read-out: MC4R IC50”, the pIC50 was < 5.52.
As to `N[C@@H](Cc1ccc(OCc2ccc(C(F)(F)F)cc2)cc1)C(=O)N1CCN(Cc2cccc(Cl)c2Cl)CC1` [Example 181], the “Displacement Rate (%) (at 10 μM)” value under setting [1] is recorded as “+++ (+++ = 91-100)”. Besides, the pIC50 (read-out: MC4R IC50) is > 5.82.
On to `CCCCc1ccc(CN2CCN(C(=O)[C@@H](N)Cc3ccc(OCc4ccccc4)cc3)CC2)cc1` [Example 96], for which the inhibition at 10 µM under setting [1] was in the range of 91 to 100%. The pIC50 (read-out: MC4R IC50) was > 5.82.
For `CC(C)(C)c1ccc(CN2CCN(C(=O)[C@@H](N)Cc3ccc(OCc4ccccc4)cc3)CC2)cc1` [Example 112], in that order: 71 to 90% and 5.52 to 5.82.
For `CCc1ccc(CN2CCCN(C(=O)[C@@H](N)Cc3ccc(OCc4ccccc4)cc3)CC2)s1` [Example 45], in that order: 35 to 70% and < 5.52.
Turning to `N[C@@H](Cc1ccc(OCc2ccccc2)cc1)C(=O)N1CCN(Cc2ccco2)CC1` [Example 151], under setting [1], the inhibition at 10 µM was 35 to 70%. Under “read-out: MC4R IC50”, the negative-log IC50 (pIC50) was < 5.52.
For `N[C@@H](Cc1ccc(OCc2ccccc2)cc1)C(=O)N1CCN(Cc2ccc(Cl)cc2Cl)CC1` [Example 119], in that order: 71 to 90% and < 5.52.
For `N[C@@H](Cc1ccc(OCc2ccccc2)cc1)C(=O)N1CCCN(Cc2ccc([N+](=O)[O-])cc2)CC1` [Example 61], in that order: 35 to 70% and < 5.52.
With `N[C@@H](Cc1ccc(OCCCCc2ccccc2)cc1)C(=O)N1CCN(Cc2cccc(Cl)c2Cl)CC1` [Example 262], the “Displacement Rate (%) (at 10 μM)” value under setting [1] is “+++ (+++ = 91-100)”. The pIC50 (read-out: MC4R IC50) is > 5.82.
Turning to `N[C@@H](Cc1ccc(OCc2cccc(OCc3ccccc3)c2)cc1)C(=O)N1CCN(Cc2cccc(Cl)c2Cl)CC1` [Example 206], the “Displacement Rate (%) (at 10 μM)” value under setting [1] is given as “+++ (+++ = 91-100)”. In addition, the pIC50 (read-out: MC4R IC50) was > 5.82.
Turning to `N[C@@H](Cc1ccc(-c2cc(C(F)(F)F)cc(C(F)(F)F)c2)cc1)C(=O)N1CCN(Cc2cccc(Cl)c2Cl)CC1` [Example 297], under setting [1], the inhibition at 10 µM fell in the range of 91 to 100%. The pIC50 (read-out: MC4R IC50) was > 5.82.
For the compound `CCN(CCOc1ccc(C[C@H](N)C(=O)N2CCN(Cc3cccc(Cl)c3Cl)CC2)cc1)c1cccc(C)c1` [Example 282], under setting [1], the “Displacement Rate (%) (at 10 μM)” value is recorded as “+++ (+++ = 91-100)”. Besides, where the note is “read-out: MC4R IC50”, the pIC50 is > 5.82.
In the case of `Cc1cccc(CN2CCCN(C(=O)[C@@H](N)Cc3ccc(OCc4ccccc4)cc3)CC2)n1` [Example 69], the inhibition at 10 µM under setting [1] lay within 35 to 70%. Besides, the pIC50 (read-out: MC4R IC50) is < 5.52.
For the compound `Cc1cc(C)cc(COc2ccc(C[C@H](N)C(=O)N3CCN(Cc4cccc(Cl)c4Cl)CC3)cc2)c1` [Example 190], under setting [1], the “Displacement Rate (%) (at 10 μM)” value is “+++ (+++ = 91-100)”. Also, where the note is “read-out: MC4R IC50”, the pIC50 is 5.52 to 5.82.
For `CCc1ccc(COc2ccc(C[C@H](N)C(=O)N3CCN(Cc4cccc(Cl)c4Cl)CC3)cc2)cc1` [Example 220], in that order: “+++ (+++ = 91-100)” and > 5.82.
In the case of `N[C@@H](Cc1ccc(OCc2ccccc2)cc1)C(=O)N1CCCN(Cc2ccc(Br)cc2)CC1` [Example 56], the pIC50 is < 5.52 and the inhibition at 10 µM was 35 to 70%.
For the compound `N[C@@H](Cc1ccc(OCc2ccccc2)cc1)C(=O)N1CCCN(Cc2cccc(C(F)(F)F)c2)CC1` [Example 55], under setting [1], the inhibition at 10 µM was 35 to 70%. The pIC50 (read-out: MC4R IC50) was < 5.52.
For `N[C@@H](Cc1ccc(OCc2ccccc2)cc1)C(=O)N1CCCN(C2CCC(c3ccccc3)CC2)CC1` (stereo partly shown) [Example 41], in that order: 71 to 90% and < 5.52.
As to `N[C@@H](Cc1ccc(OCc2ccccc2)cc1)C(=O)N1CCCN(Cc2ccc(Cl)c(Cl)c2)CC1` [Example 17], under setting [1], the inhibition at 10 µM fell in the range of 91 to 100%. For the same compound, the pIC50 (read-out: MC4R IC50) is 5.52 to 5.82.
For `Nc1cccc(-c2ccc(C[C@H](N)C(=O)N3CCN(Cc4cccc(Cl)c4Cl)CC3)cc2)c1` [Example 333], in that order: 71 to 90% and < 5.52.
In the case of `N[C@@H](Cc1ccc(OCCc2cccc(Cl)c2)cc1)C(=O)N1CCN(Cc2cccc(Cl)c2Cl)CC1` [Example 249], under setting [1], the “Displacement Rate (%) (at 10 μM)” value is “+++ (+++ = 91-100)”. Moreover, the pIC50 (read-out: MC4R IC50) was > 5.82.
In the case of `N[C@@H](Cc1ccc(OCc2c(F)cccc2Cl)cc1)C(=O)N1CCN(Cc2cccc(Cl)c2Cl)CC1` [Example 222], the “Displacement Rate (%) (at 10 μM)” value under setting [1] is recorded as “+++ (+++ = 91-100)”. Also, the pIC50 (read-out: MC4R IC50) was 5.52 to 5.82.
As for `CCCOc1ccc(CN2CCN(C(=O)[C@@H](N)Cc3ccc(OCc4ccccc4)cc3)CC2)cc1` [Example 126], the inhibition at 10 µM under setting [1] was in the range of 71 to 90%. Further, for the setting “read-out: MC4R IC50”, the pIC50 was 5.52 to 5.82.
As for `N[C@@H](Cc1ccc(-c2cccc3cccnc23)cc1)C(=O)N1CCN(Cc2cccc(Cl)c2Cl)CC1` [Example 340], the inhibition at 10 µM lay within 71 to 90%. Moreover, the pIC50 (read-out: MC4R IC50) was 5.52 to 5.82.
In the case of `N[C@@H](Cc1ccc(OCc2c(F)cccc2F)cc1)C(=O)N1CCN(Cc2cccc(Cl)c2Cl)CC1` [Example 205], the “Displacement Rate (%) (at 10 μM)” value under setting [1] is recorded as “+++ (+++ = 91-100)”. For the setting “read-out: MC4R IC50”, the pIC50 was 5.52 to 5.82.
